Usually DC50 stands for the midpoint of the concentration-degradation curve.

Bounds are passed on as bounds.

The subject of the assay is SMARTCAR-MTH1-wt-HiBiT (Jurkat.7 cells). The assay can be described thus: HiBit Lytic Assay (HiBit DC50, MTH1 degraders of Table 2). The assay is classed as cell-based, human. Particulars: Jurkat.7 SMARTCAR-MTH1-wt-HiBiT cells, compound treatment time 4 hr, 11-point half log dose response. The method, then:
Example 3. HiBit Lytic Assay
• Compound is made at 10 mM, half log dilution, 11 points. • MDR plates can also be ordered from Frontier with same format. • 1. Barcode a 384LDV plate (384-well Low Dead Volume Microplate, Labcyte LP-0200) (Echo compatible) on the left side. • 2. Transfer 13.6 μL of 10 mM compound into column 1 of LDV plate (Labcyte). • 3. Fill column 2-11 and column 23 of MDR plate with 9.30 μL of DMSO. • 4. Serial dilute 3.16 fold from column 1 to 2 by transferring 4.30 μL from column 1 to column 2, and so on to column 11. *Change tip in every dilution to prevent compound carryover effect! • 5. Seal the plate with Plate Sealer, then store the MDR plate at room temperature for short term storage and in −20° C. for long term storage.
• Cells are treated with 30 nL of each compound at 10 mM, half log dilution, 11 points with final concentration of 1000 nM or 833 nM, half log dilution, 11 points, in duplicates. Final DMSO concentration is 0.1%. • 1. Barcode the plates made on the left side and label the plates with silver marker. • 2. Dispense with the following scheme: • a. 30 nL of compound into corresponding wells in cell plates via Echo550 with “MDR32_HiBiT16_30 nL”. Top concentration will be 1000 nM. • 3. Seal the plate with Plate Sealer.
• Cells are dispensed at density specified in Cell Line Table in 384-well microplate. • 1. Culture cells to between 50-80% of confluence in sterile culture flasks of appropriate size. • 2. For Adherent Cell Lines: • a. Aspirate off growth media in culture flask, and wash off the Phenol Red media with 5 mL of 1×PBS. • b. Add 5 mL of Trypsin to the cells, incubate at 37° C. for 5 minutes. • c. Add 5 mL of growth media to the trypsinzed cells, and resuspend. • 3. Remove 10 μL of cells, and resuspend the cells with 10 μL of Trypan Blue. Insert the solution to counting chamber slide, and count the cells via cell counter. • 4. Adjust the cell concentration to specified plating density, and strain the cells with cell strainer. • 5. Dispense the cells via E1-ClipTip™ Electronic Multichannel Pipettes or Multidrop™ Combi Reagent Dispenser with Standard tube dispensing cassette: • a. Prime the cassette with 10-20 mL of ddH2O. • b. Prime the cassette with 10-20 mL of cells. • c. Dispense the cells at low speed for 30 μL/well in Corning® 384 Well Low Flange Black Flat Bottom Polystyrene TC-Treated Microplate. • d. Wash the cassette with 10-20 mL of ddH2O, follow by 10-20 mL of 70% EtOH, then again with 10-20 mL of ddH2O. • 6. Incubate the plates at 37° C.×compound treatment time.
• 1. If not already, bring Nano-Glo® HiBiT Lytic Buffer to room temperature. • 2. Determine the amount of reagent needed. A volume of reagent equal to the volume of media in the well should be added (i.e. 30 μL of cells will need 30 μL of HiBiT Lytic reagent). • 3. Into a given volume of buffer, dilute the substrate 50-fold and the LgBiT protein 100-fold. For example, to make 10 ml of reagent, add the following: • 10 ml Nano-Glo® HiBiT Lytic Buffer • 200 μl Nano-Glo® HiBiT Lytic Substrate • 100 μl LgBiT Protein • The reagent should be reconstituted immediately before use. However, once reconstituted, it should take about 4 hours for the activity to decrease 10%. • 4. Cool down the cell plate to room temperature for 10-15 minutes without lid. • 5. Dispense the HiBiT Lytic Reagent via E1-ClipTip™ Electronic Multichannel Pipettes or Multidrop™ Combi Reagent Dispenser with Standard tube dispensing cassette: • a. Prime the cassette with 10-20 mL of ddH2O. • b. Prime the cassette with 10-20 mL of CTG 2.0. • c. Dispense the HiBiT Lytic Reagent at medium speed for 30 μL/well in cell plate to column 1-23 (column 24 will be used as plate background). • d. Wash the cassette with 10-20 mL of ddH2O, follow by 10-20 mL of 70% EtOH, then again with 10-20 mL of ddH2O. • 6. Incubate the cell plate at room temperature for 10 minutes without lid. • 7. […]
(HiBiT is a short tag that completes a luciferase, so light tracks the accessible tagged protein.)
`CNC(=O)c1cnc2ccc(-c3ccc(C(=O)NCCCCCCCCc4cccc5c4CN(C4CCC(=O)NC4=O)C5=O)cc3)cc2c1Nc1ccccc1` (stereo not drawn) [Compound 378, 4-anilino-6-[4-[8-[2-(2,6-dioxo-3-piperidyl)-1-oxo-isoindolin-4-yl]octylcarbamoyl]phenyl]-N-methyl-quinoline-3-carboxamide] showed a DC50 below 100 nM.
`CNC(=O)c1cnc2cc(C(F)(F)F)c(-c3ccc(C(=O)NCCCCNC(=O)COc4cccc5c4C(=O)N(C4CCC(=O)NC4=O)C5=O)c(F)c3)cc2c1Nc1ccccc1` (stereo not drawn) [Compound 379, 6-(4-((4-(2-((2-(2,6-dioxopiperidin-3-yl)-1,3-dioxoisoindolin-4-yl)oxy)acetamido)butyl)carbamoyl)-3-fluorophenyl)-N-methyl-4-(phenylamino)-7-(trifluoromethyl)quinoline-3-carboxamide] gave a 50% degradation concentration (DC50) below 100 nM.
Then `CNC(=O)c1cnc2cc(OC)c(-c3ccc(C(=O)NCCCCNC(=O)[C@@H](C)Nc4cccc5c4C(=O)N(C4CCC(=O)NC4=O)C5=O)nc3)cc2c1Nc1ccccc1` (stereo partly drawn) [Compound 382, 6-(6-((4-((2R)-2-((2-(2,6-dioxopiperidin-3-yl)-1,3-dioxoisoindolin-4-yl)amino)propanamido)butyl)carbamoyl)pyridin-3-yl)-7-methoxy-N-methyl-4-(phenylamino)quinoline-3-carboxamide], with below 100 nM; and `CNC(=O)c1cnc2ccc(-c3ccc(CCCCCNC(=O)CNc4cccc5c4C(=O)N(C4CCC(=O)NC4=O)C5=O)nc3)cc2c1Nc1ccccc1` (stereo not drawn) [Compound 385, 4-anilino-6-[6-[5-[[2-[[2-(2,6-dioxo-3-piperidyl)-1,3-dioxo-isoindolin-4-yl]amino]acetyl]amino]pentyl]-3-pyridyl]-N-methyl-quinoline-3-carboxamide], with below 100 nM; and `CNC(=O)c1cnc2cc(C(F)(F)F)c(-c3ccc(C(=O)NCCCCn4cc(CNc5cccc6c5C(=O)N(C5CCC(=O)NC5=O)C6=O)nn4)nc3)cc2c1Nc1ccccc1` (stereo not drawn) [Compound 386, 6-(6-((4-(4-(((2-(2,6-dioxopiperidin-3-yl)-1,3-dioxoisoindolin-4-yl)amino)methyl)-1H-1,2,3-triazol-1-yl)butyl)carbamoyl)pyridin-3-yl)-N-methyl-4-(phenylamino)-7-(trifluoromethyl)quinoline-3-carboxamide], with below 100 nM.
Consider `CNC(=O)c1cnc2ccc(-c3nc(C(=O)NCCCCNC(=O)CNc4cccc5c4C(=O)N(C4CCC(=O)NC4=O)C5=O)cs3)cc2c1Nc1ccccc1` (stereo not drawn) [Compound 387, 2-[4-anilino-3-(methylcarbamoyl)-6-quinolyl]-N-[4-[[2-[[2-(2,6-dioxo-3-piperidyl)-1,3-dioxo-isoindolin-4-yl]amino]acetyl]amino]butyl]thiazole-4-carboxamide], for which the half-maximal degradation concentration (DC50) was below 100 nM.
Take `CNC(=O)c1cnc2cc(C(F)(F)F)c(-c3ccc(C(=O)NCCCCNC(=O)CNc4cccc5c4C(=O)N(C4CCC(=O)NC4=O)C5=O)nc3)cc2c1Nc1ccccc1` (stereo not drawn) [Compound 388, 6-(6-((4-(2-((2-(2,6-dioxopiperidin-3-yl)-1,3-dioxoisoindolin-4-yl)amino)acetamido)butyl)carbamoyl)pyridin-3-yl)-N-methyl-4-(phenylamino)-7-(trifluoromethyl)quinoline-3-carboxamide]: the 50% degradation concentration (DC50) is below 100 nM.
`CNC(=O)c1cnc2cc(F)c(-c3ccc(C(=O)NCCCCn4cc(CNc5cccc6c5C(=O)N(C5CCC(=O)NC5=O)C6=O)nn4)nc3)cc2c1Nc1ccccc1` (stereo not drawn) [Compound 389, 6-(6-((4-(4-(((2-(2,6-dioxopiperidin-3-yl)-1,3-dioxoisoindolin-4-yl)amino)methyl)-1H-1,2,3-triazol-1-yl)butyl)carbamoyl)pyridin-3-yl)-7-fluoro-N-methyl-4-(phenylamino)quinoline-3-carboxamide] had a DC50 below 100 nM.
On to `COc1ccc(CNc2c(C(=O)NC3CC3)cnc3cc(OC)c(-c4ccc(C(=O)NCCCCn5cc(CNc6cccc7c6C(=O)N(C6CCC(=O)NC6=O)C7=O)nn5)nc4)cc23)cc1` (stereo not drawn) [Compound 395, N-cyclopropyl-6-[6-[4-[4-[[[2-(2,6-dioxo-3-piperidyl)-1,3-dioxo-isoindolin-4-yl]amino]methyl]triazol-1-yl]butylcarbamoyl]-3-pyridyl]-7-methoxy-4-[(4-methoxyphenyl)methylamino]quinoline-3-carboxamide], for which the DC50 is below 100 nM.
Then `COc1cc2ncc(C(=O)NC3CC3)c(Nc3ccccc3)c2cc1-c1ccc(C(=O)NCCCCn2cc(CNc3cccc4c3C(=O)N(C3CCC(=O)NC3=O)C4=O)nn2)nc1` (stereo not drawn) [Compound 396, 4-anilino-N-cyclopropyl-6-[6-[4-[4-[[[2-(2,6-dioxo-3-piperidyl)-1,3-dioxo-isoindolin-4-yl]amino]methyl]triazol-1-yl]butylcarbamoyl]-3-pyridyl]-7-methoxy-quinoline-3-carboxamide], with below 100 nM.
In turn, `CNc1c(C(=O)NC2CC2)cnc2cc(OC)c(-c3ccc(C(=O)NCCCCn4cc(CNc5cccc6c5C(=O)N(C5CCC(=O)NC5=O)C6=O)nn4)nc3)cc12` (stereo not drawn) [Compound 397, N-cyclopropyl-6-[6-[4-[4-[[[2-(2,6-dioxo-3-piperidyl)-1,3-dioxo-isoindolin-4-yl]amino]methyl]triazol-1-yl]butylcarbamoyl]-3-pyridyl]-7-methoxy-4-(methylamino)quinoline-3-carboxamide] had a DC50 below 100 nM.
As for `COc1cc2ncc(C(=O)NC3CC3)c(N)c2cc1-c1ccc(C(=O)NCCCCn2cc(CNc3cccc4c3C(=O)N(C3CCC(=O)NC3=O)C4=O)nn2)nc1` (stereo not drawn) [Compound 398, 4-amino-N-cyclopropyl-6-[6-[4-[4-[[[2-(2,6-dioxo-3-piperidyl)-1,3-dioxo-isoindolin-4-yl]amino]methyl]triazol-1-yl]butylcarbamoyl]-3-pyridyl]-7-methoxy-quinoline-3-carboxamide], the DC50 was below 100 nM.
`CNc1c(C(=O)NC2CC2)cnc2cc(F)c(-c3ccc(C(=O)NCCCCCCCc4cnc5c(c4)CN(C4CCC(=O)NC4=O)C5=O)c(F)c3)cc12` (stereo not drawn) [Compound 401, N-cyclopropyl-6-[4-[7-[6-(2,6-dioxo-3-piperidyl)-7-oxo-5H-pyrrolo[3,4-b]pyridin-3-yl]heptylcarbamoyl]-3-fluoro-phenyl]-7-fluoro-4-(methylamino)quinoline-3-carboxamide]: the DC50 was below 100 nM.
To `CNc1c(C(=O)NC2CC2)cnc2cc(F)c(-c3ccc(C(=O)NCCCCCCCCc4cnc5c(c4)CN(C4CCC(=O)NC4=O)C5=O)c(F)c3)cc12` (stereo not drawn) [Compound 405, N-cyclopropyl-6-[4-[8-[6-(2,6-dioxo-3-piperidyl)-7-oxo-5H-pyrrolo[3,4-b]pyridin-3-yl]octylcarbamoyl]-3-fluoro-phenyl]-7-fluoro-4-(methylamino)quinoline-3-carboxamide] belongs below 100 nM; to `CNc1c(C(=O)NC2CC2)cnc2cc(F)c(-c3ccc(C(=O)NCCCCCCCCc4ccc5c(n4)CN(C4CCC(=O)NC4=O)C5=O)c(F)c3)cc12` (stereo not drawn) [Compound 408, N-cyclopropyl-6-[4-[8-[6-(2,6-dioxo-3-piperidyl)-5-oxo-7H-pyrrolo[3,4-b]pyridin-2-yl]octylcarbamoyl]-3-fluoro-phenyl]-7-fluoro-4-(methylamino)quinoline-3-carboxamide], below 100 nM.

The record behind these values is patent publication US20210198256A1, “COMPOUNDS FOR THE DEGRADATION OF BRD9 OR MTH1” (C4 Therapeutics, Inc., priority 2018, published 2021).
